{"source": "patent US7368576B2", "about": "“Dipeptidyl peptidase IV inhibitors and their uses as anti-cancer agents” (Probiodrug AG, priority 2001, dated 2008)", "key": {"[1]": {"details": "REINHOLD, D., et al., 1998; cited from earlier work"}, "MADB106 tumor cells [2]": {"system": "MADB106 tumor cells", "assay": "Body weight change in rats with lung metastasis", "format": "in vivo", "details": "F344 rats, chronic intragastric infusion via osmotic minipumps, 0.04, 0.4, 4 mg/24 h, 2 weeks after MADB106 injection, post-hoc significant at 0.4 mg and 4 mg", "description": "(§1) Osmotic minipumps (Alzet model 2ML4; flow rate, 2.5 μl/hr; Alza Corporation), administering a constant supply of the different compounds, aseptically prefilled with either saline or DPIV inhibitor were placed subcutaneously in the abdominal area. Minipums were attached to a cannula via polyethylene tubing. The cannula was implanted intragastrically with a heating-induced enlarged tip of the cannula in the lumen of the gaster.\nData from in vivo body weight gain and number of lung surface tumor colonies were analyzed by one-way ANOVAs and Fisher's PLSD post hoc tests, if appropriate. An asterisk indicates significant post hoc effects vs. saline (SHAM) treated controls obtained by Fisher's PLSD. All data are presented as means±S.E.M."}, "MADB106 tumor cells [3]": {"system": "MADB106 tumor cells", "assay": "In vivo cancer cell adhesion assay (CFSE labeled cells in lungs)", "parameters": "species or system F344 rats", "details": "30 min after inoculation", "description": "(§2) Cell culture, injection of tumor cells, dissection of the animals and immunohistochemistry were conducted as previously described (von Hörsten et al., 2000). In brief, 1×10^6 MADB106 tumor cells derived from log phase of tumor growth were injected via the lateral tail vein and lungs removed at different time points thereafter. For in situ quantification of tumor cells at early time points after injection (30 min), cells were vital dye stained using the fluorescein derivate 5- (and -6)-carboxyfluorescein diacetate succinimidyl ester (CFSE) before injection.\nControl sections were included in which one or both primary antibodies were omitted.\nVital dye (Carboxyfluorescein; CFSE) labeling of MADB106 tumor cells allows the quantification of tumor cells and NK cells in thick sections of lung tissue by stereology in situ (von Hörsten et al, 2000). In the present study we produced thin sections (8 μm) of the same lungs (n=10) and performed additional microscopic counting by image analysis of DE1 positive cells. This was done to further simplify the previously validated stereological quantification technique. Therefore, in the present study, the assessment of DE1 positive tumor cells in lung tissue from different substrains 30 min after tumor inoculation was carried out using image analysis approach. […] Each right upper lobe of the lungs was sectioned at 6 randomly chosen non-adjacent levels. From each level, three sections were evaluated."}, "MADB106 tumor cells [4]": {"system": "MADB106 tumor cells", "assay": "Cancer colonization assay (lung surface tumor colonies)", "format": "in vivo", "details": "F344 rats, 2 weeks after MADB106 injection; for number of lung surface tumor colonies, comparison of inhibitors: chronic intragastric infusion, isoleucyl thiazolidine fumarate 4 mg/24 h, the others 0.1 mg/24 h, vs. saline SHAM", "description": "as §2\nas §2, with “In” for “Cell culture, injection of tumor cells, dissection of the animals and immunohistochemistry were conducted as previously described (von Hörsten et al., 2000). In”\nas §1"}, "MADB106 tumor cells [5]": {"system": "MADB106 tumor cells", "assay": "Cancer colonization assay (lung surface tumor colonies)", "format": "in vivo, F344 rats", "details": "F344USA rats, 2 mg i.v. + 2 mg i.p., 2 weeks after MADB106 injection, vs. saline; fumarate"}}, "note": "“Also recorded” adds a separate entry of the source. Counter-ions that a name gives are not always drawn.", "data": [{"smiles": "N[C@@H](CCC(=O)NCC(=O)O)C(=O)N1CCSC1", "note": "[Glu(Gly)-Thia]", "values": [{"measurement": "transport", "setting": "[1]", "value": "transported completely"}]}, {"smiles": "CC[C@H](C)[C@H](N)C(=O)N1CCSC1", "note": "[Isoleucyl thiazolidine fumarate]", "values": [{"measurement": "body weight change (cancer-induced weight loss)", "setting": "MADB106 tumor cells [2]; fumarate", "value": "dose-dependently reduced; also recorded: dose dependent reduction of the loss of body weight"}, {"measurement": "tumor cell adhesion, CFSE positive cells in lung tissue", "setting": "MADB106 tumor cells [3]; DPIV mutant F344GER and F344JAP rats, single injection 2 mg i.v. + 2 mg i.p., fumarate", "value": "significantly modified; also recorded: promoting effect"}, {"measurement": "tumor cell adhesion, CFSE positive cells in lung tissue", "setting": "MADB106 tumor cells [3]; wild-type F344USA rats, single injection i.v. + i.p., vs. saline, fumarate", "value": "did not significantly affect tumor adhesion; also recorded: lack of effects"}, {"measurement": "number of lung surface tumor colonies, different dosages", "setting": "MADB106 tumor cells [4]; chronic intragastric infusion 0.04, 0.4, 4 mg/24 h, post-hoc significant at 4 mg, fumarate", "value": "significant effect; also recorded: dose dependent reduction of lung colony numbers"}, {"measurement": "number of lung surface tumor colonies, comparison of inhibitors", "setting": "MADB106 tumor cells [4]; fumarate", "value": "dose-dependently reduced; also recorded: significant reduction of lung colony numbers"}, {"measurement": "number of lung surface tumor colonies after single injection", "setting": "MADB106 tumor cells [5]", "value": "no significant effect; also recorded: no significant differences"}]}, {"smiles": "N[C@@H](CCCCNC(=O)OCc1ccc([N+](=O)[O-])cc1)C(=O)N1CCSC1", "note": "[Lys(Z-NO2)-Thia]", "values": [{"measurement": "transport", "setting": "[1]", "value": "transported completely"}]}, {"smiles": "CC[C@H](C)[C@H](N)C(=O)N1CCCC1C#N.O=C(O)C(F)(F)F", "note": "(stereo partly drawn) [isoleucyl cyanopyrrolidine TFA]", "values": [{"measurement": "body weight change (cancer-induced weight loss)", "setting": "MADB106 tumor cells [2]", "value": "dose-dependently reduced"}, {"measurement": "tumor cell adhesion, CFSE positive cells in lung tissue", "setting": "MADB106 tumor cells [3]; wild-type F344USA rats, single injection i.v. + i.p., vs. saline, TFA", "value": "no significant effect; also recorded: significant differences vs. saline treated controls were not found"}, {"measurement": "number of lung surface tumor colonies, comparison of inhibitors", "setting": "MADB106 tumor cells [4]; TFA", "value": "significant reduction of lung colony numbers"}, {"measurement": "number of lung surface tumor colonies, comparison of inhibitors", "setting": "MADB106 tumor cells [4]; listed as isoleucyl cyano pyrrolidine TFA, TFA", "value": "dose-dependently reduced"}]}]}
